Measurements from patent US20210095293A1, “METHODS OF TREATING CANCERS WITH GPR132 INHIBITORS” (The Board of Regents of the University of Texas System, priority 2016, published 2021).

Experiments:
[1] = tested on: breast cancer cells (EO771, 4T1.2); test: Boyden chamber assay, cancer cell invasion (matrigel); type: cell-based, mouse
Procedure: (§1) FIGS. 11A-11C. Lactate-activated macrophage promotes cancer cell adhesion, migration and invasion via Gpr132. (FIG. 11A) Adherence assays. 4T1.2 cells were suspended in fibronectin ([…]) pre-coated plates with CM from spleen-derived macrophages (mf) that were treated with 4T1.2 CM or lactate (5 mM) with or without Gpr132 antibody (6 mg/ml) or normal IgG (6 mg/ml) for 10 min. The adhered cells were stained with crystal violet, dissolved in 1% Triton X-100 and measured by OD590. (FIGS. 11B-11C) Boyden chamber assay of cancer cell migration and invasion. 4T1.2 cells (B) or EO771 cells (FIG. 11C) were plated on the upper chamber inserts, with untreated (Control), 4T1.2 CM-activated or lactate-activated spleen-derived WT or Gpr132-KO macrophages plated in the lower chambers. For invasion assay, the inserts were pre-coated with 60 μl matrigel. After migration for 6 hrs (FIG. 11B) or invasion for 24 hrs (FIG. 11C), the migrated or invaded cells were stained with crystal violet and counted as cells per field of view under microscope (n=3-4); For (FIG. 11C), the first bar of each data set of the bar graphs represents the control mf, and the second bar represents Gpr132KO; *p<0.05; **p<0.01; ***p<0.005; ****p<0.001. Scale bar, 500 μm.
FIGS. 23A-23B. Cancer cell-derived lactate activates macrophages to promote cancer cell migration and invasion via Gpr132. (FIGS. 23A-23B) Boyden chamber assay. EO771 or 4T1.2 cells were cultured in the presence or absence of oxamic acid (90 mM) for 3 days. CM was harvested after the cells were cultured for another 24 hrs without oxamic acid. […] After migration for 6 hrs (FIG. 23A) or invasion for 24 hrs (FIG. 23B), the migrated or invaded cells were stained with crystal violet and counted as cells per field of view under microscope (n=3-4); for (FIG. 23A), the bars in each data set of the bar graph represent, from left to right, control, EO771, Oxamic acid, and Oxamic acid+Lactate; for (FIG. 23B), the bars in each data set of the bar graph represent, from left to right, control, 4T1.2CM, Oxamic acid, and Oxamic acid+Lactate; *p<0.05; ****p<0.001. […]

4T1.2 cells = test: adherence assay of breast cancer cells to fibronectin; type: cell-based, mouse; details: macrophages activated by 4T1.2 CM or lactate (5 mM); vs untreated control macrophages
Procedure: as §1, with “Scale bar, 500 μm.” left out
Cancer cells were treated with the conditioned medium from indicated macrophage for 2 hrs. Adherence of treated breast cancer cells to fibronectin was evaluated as described.

macrophage Gpr132 = target: T1, macrophage Gpr132 (Mus musculus, UniProt Q9Z282); test: Gpr132 co-immunoprecipitation with LC-MS quantification of lactate; type: binding; details: lactate of <3 kDa EO771 CM, BMDM lysate
T1 construct: endogenous in cells; host or cells: bone marrow-derived macrophages (BMDMs) from WT C57BL/6 mice; Gpr132-KO BMDMs served as negative control
T1 sequence (Q9Z282 1-382): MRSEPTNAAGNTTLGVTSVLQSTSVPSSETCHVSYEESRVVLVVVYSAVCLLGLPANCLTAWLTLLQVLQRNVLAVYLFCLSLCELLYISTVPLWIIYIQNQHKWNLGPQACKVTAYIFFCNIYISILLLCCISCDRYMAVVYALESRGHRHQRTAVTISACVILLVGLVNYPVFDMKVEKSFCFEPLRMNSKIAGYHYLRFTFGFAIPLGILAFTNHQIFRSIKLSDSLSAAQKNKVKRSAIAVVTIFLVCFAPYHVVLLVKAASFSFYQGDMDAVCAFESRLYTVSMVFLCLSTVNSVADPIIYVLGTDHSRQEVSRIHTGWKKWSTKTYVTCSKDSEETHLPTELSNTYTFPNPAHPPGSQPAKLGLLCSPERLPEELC
Procedure: To determine whether lactate in the <3 kDa fraction of EO771 CM could bind to macrophage Gpr132, co-immunoprecipitation with anti-Gpr132 in WT and Gpr132-KO BMDMs was performed. Lactate pulled down by Gpr132 was quantified by liquid chromatography-mass spectrometry (LC-MS).
WT or Gpr132-KO BMDM lysate was incubated with concentrated <3 kDa EO771 CM for 4 hrs. This mixture of 1 ml volume was then incubated with 10 μl anti-Gpr132 antibody and 40 μl protein A/G plus-agarose beads overnight at 4° C. After the beads were washed, the IP eluent was collected for lactate quantification. Lactate was extracted and analyzed as reported (7). Briefly, 400 μl of cold MeOH was added to 100 μl of the IP eluent. Samples were mixed and then stored at −80° C. overnight. The next morning, samples were spun at 14,000 g for 10 min, and the supernatant was collected. After drying the supernatant via speedvac, the extract was dissolved in H2O (40 μl) and a portion of this sample (10 μl) analyzed by LC-MS. Lactate was measured using a TSQ Quantiva LC-MS instrument fitted with a Luna NH2 HPLC column ([…], 4.6 mm×100 mm, Phenomenex). The following LC solvents were used: buffer A, 95:5 H2O/ACN, 20 mM ammonium hydroxide, 20 mM ammonium acetate; buffer B, 100% ACN. […] Relative abundance of lactate was determined by measuring the lactate peak area.

## CC(O)C(=O)O (stereo not shown) [lactate]
[1]; EO771 cells, 24 hrs, Gpr132-KO macrophages
  breast cancer cell invasion induced by activated macrophages, Gpr132 deletion: completely abrogated
[1]; exogenous lactate, WT macrophages
  rescue of invasion by addition to oxamic acid-pretreated cancer cell CM: restored
4T1.2 cells
  adherence of 4T1.2 cells to fibronectin with CM from activated macrophages: significantly increased
Macrophage Gpr132
  lactate enrichment in Gpr132 co-IP eluent, WT vs Gpr132-KO macrophages: 7.1 fold
